Columns and labels:
[1] = Analysis of glutaraldehyde release after heat-aging; assay type: physicochemical; settings: sterile deionized water, molar equivalent of 2000 ppm glutaraldehyde; initial and heat-aged at 55° C. for 2 h or 24 h
Method: Samples of the IPHA-adduct are analyzed for glutaraldehyde content. Samples are prepared in sterile deionized water at the molar equivalent of 2000 ppm glutaraldehyde. A standard of 500 ppm glutaraldehyde is also prepared. An initial measurement is taken just after sample preparation. Samples are then heat-aged at 55° C. for 2 h or 24 h and analyzed again. Glutaraldehyde concentration is measured directly via GC and after pre-column derivatization by HPLC.

[2] = tested on: T. thermophilus; test: Biocidal efficacy against thermophilic bacteria at 70° C., dilution to extinction; assay type: cell-based; settings: equivalent of 100 ppm glutaraldehyde, after 5 days with re-challenging
Method: b. Thermophilic Bacteria. A 48-72 hour old culture of T. thermophilus is pelleted by centrifuging at 2000 g and the pellet resuspended in 10 times the culture volume of buffer (PBS or carbonate-buffered synthetic freshwater). The suspension is distributed into 10 mL aliquots in glass screw-cap tubes. Each tube is then treated with glutaraldehyde or an adduct and incubated at 70° C. At indicated timepoints, cell density in each tube is measured via dilution to extinction by serially diluting a sample and plating dilutions on solid media.

Compound | Glutaraldehyde concentration after pre-column derivatization by HPLC [1] | Glutaraldehyde concentration measured directly via GC [1] | Control of bacterial levels after 5 days [2]
CC(C)/[N+]([O-])=C/CCC/C=[N+](\[O-])C(C)C [IPHA-adduct, N,N′-(pentane-1,5-diylidene)bis(propan-2-amineoxide)] | low levels of glutaraldehyde | No glutaraldehyde is detected | 
O=CCCCC=O [glutaraldehyde] |  |  | fails to control bacterial levels

From patent US9226499B2, “Protected antimicrobial compounds for high temperature applications” (Dow Global Technologies LLC, priority 2010, dated 2016)
